Key:
Type in all cases: cell-based
[1] = target: T1, F876L mutant Androgen Receptor (AR-F876L) (Homo sapiens (Human), UniProt P10275, F877L); experiment: LNCaP-AR-F876L ANT reporter assay (antagonist mode); settings: for IC50: antagonist mode, pIC50 = −Log10(IC50 in Molar), read-out: LNCaP-AR-F876L ANT pIC50 (converted); for Emax: maximum % inhibition of R1881 control response over the tested concentration range, read-out: LNCaP-AR-F876L ANT MAX % Inh
[2] = target: T2, wild-type Androgen Receptor (AR-wt) (Homo sapiens (Human), UniProt P10275); experiment: LNCaP-AR-wt AG reporter assay (agonist mode); settings: for EC50: agonist mode, pEC50 = −Log10(EC50 in Molar), read-out: LNCaP-AR-wt AG pEC50 (converted); for Emax: maximum % stimulation (agonist response) over the tested concentration range, read-out: LNCaP-AR-wt AG MAX % Stim
T2 sequence (P10275 whole entry): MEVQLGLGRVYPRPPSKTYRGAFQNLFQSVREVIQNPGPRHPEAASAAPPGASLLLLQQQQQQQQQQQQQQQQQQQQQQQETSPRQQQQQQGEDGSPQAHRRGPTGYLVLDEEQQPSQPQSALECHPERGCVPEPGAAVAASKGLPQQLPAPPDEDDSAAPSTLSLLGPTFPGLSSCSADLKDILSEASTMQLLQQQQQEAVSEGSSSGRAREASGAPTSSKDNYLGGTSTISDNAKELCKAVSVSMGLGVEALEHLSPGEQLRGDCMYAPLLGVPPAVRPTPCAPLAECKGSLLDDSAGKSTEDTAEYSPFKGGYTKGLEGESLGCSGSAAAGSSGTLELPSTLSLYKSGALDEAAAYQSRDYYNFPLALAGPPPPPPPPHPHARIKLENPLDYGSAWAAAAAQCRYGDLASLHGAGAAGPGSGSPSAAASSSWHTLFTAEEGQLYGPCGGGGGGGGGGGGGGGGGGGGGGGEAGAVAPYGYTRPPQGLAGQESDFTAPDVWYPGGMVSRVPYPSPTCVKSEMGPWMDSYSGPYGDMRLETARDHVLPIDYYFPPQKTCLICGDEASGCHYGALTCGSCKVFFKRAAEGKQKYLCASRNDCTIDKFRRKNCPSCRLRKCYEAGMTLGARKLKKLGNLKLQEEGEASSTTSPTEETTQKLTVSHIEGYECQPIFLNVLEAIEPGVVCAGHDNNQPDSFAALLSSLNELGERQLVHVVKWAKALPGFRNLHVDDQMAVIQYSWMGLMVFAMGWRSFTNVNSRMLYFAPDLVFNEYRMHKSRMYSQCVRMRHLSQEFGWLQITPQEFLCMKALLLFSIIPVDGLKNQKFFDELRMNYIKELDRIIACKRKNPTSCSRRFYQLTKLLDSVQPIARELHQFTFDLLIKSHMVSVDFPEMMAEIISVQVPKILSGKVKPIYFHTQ

[3] = target: T2, wild-type Androgen Receptor (AR-wt); experiment: LNCaP-AR-wt ANT reporter assay (antagonist mode); settings: for IC50: antagonist mode, pIC50 = −Log10(IC50 in Molar), read-out: LNCaP-AR-wt ANT pIC50 (converted); for Emax: maximum % inhibition of R1881 control response over the tested concentration range, read-out: LNCaP-AR-wt ANT MAX % Inh
[4] = target: T1, F876L mutant Androgen Receptor (AR-F876L); experiment: LNCaP-AR-F876L AG reporter assay (agonist mode); settings: for EC50: agonist mode, pEC50 = −Log10(EC50 in Molar), read-out: LNCaP-AR-F876L AG pEC50 (converted); for Emax: maximum % stimulation (agonist response) over the tested concentration range, read-out: LNCaP-AR-F876L AG MAX % Stim

T1 sequence (P10275 whole entry F877L): as the sequence (P10275 whole entry) above, with F877L counted along it

Row | IC50 [1] [nM] | Emax [1] [%] | EC50 [2] [nM] | Emax [2] [%] | IC50 [3] [nM] | Emax [3] [%] | EC50 [4] [nM] | Emax [4] [%] | SMILES
1 | 219 | 98 | > 15100 | 1.1 | 302 | 97.4 | > 15100 | 2.6 | N#Cc1ncc(N2C(=O)C3(CCC3)N(c3ccc4[nH]ncc4c3)C2=S)cc1Cl [Cpd 155, 3-chloro-5-[8-(1H-indazol-5-yl)-5-oxo-7-thioxo-6,8-diazaspiro[3.4]octan-6-yl]pyridine-2-carbonitrile]
2 | 178 | 101 | > 15100 | 1 | 282 | 100 | > 15100 | 0.9 | N#Cc1ncc(N2C(=O)C3(CCC3)N(c3ccc(OC4CCN5CCCC5C4)cc3)C2=S)cc1C(F)(F)F (stereo not shown) [Cpd 156, 5-[8-[4-(1,2,3,5,6,7,8,8a-octahydroindolizin-7-yloxy)phenyl]-5-oxo-7-thioxo-6,8-diazaspiro[3.4]octan-6-yl]-3-(trifluoromethyl)pyridine-2-carbonitrile]
3 | 501 | 99.8 | > 15100 | -0.2 | 724 | 102 | > 15100 | 0 | N#Cc1ncc(N2C(=O)C3(CCC3)N(c3ccc(OC4CCN(CC(O)CN)CC4)cc3)C2=S)cc1C(F)(F)F (stereo not shown) [Cpd 157, 5-[8-[4-[[1-(3-amino-2-hydroxy-propyl)-4-piperidyl]oxy]phenyl]-5-oxo-7-thioxo-6,8-diazaspiro[3.4]octan-6-yl]-3-(trifluoromethyl)pyridine-2-carbonitrile]
4 | 309 | 100 | > 15100 | 0.2 | 1350 | 100 | > 15100 | 0.2 | N#Cc1ncc(N2C(=O)C3(CCC3)N(c3ccc4c(cnn4CCO)c3)C2=S)cc1C(F)(F)F [Cpd 159, 5-[8-[1-(2-hydroxyethyl)indazol-5-yl]-5-oxo-7-thioxo-6,8-diazaspiro[3.4]octan-6-yl]-3-(trifluoromethyl)pyridine-2-carbonitrile]
5 | 708 | 101 | > 15100 | 0.1 | 1230 | 103 | > 15100 | 0 | COCCn1ncc2ccc(N3C(=S)N(c4cnc(C#N)c(C(F)(F)F)c4)C(=O)C34CCC4)cc21 [Cpd 160, 5-[8-[1-(2-methoxyethyl)indazol-6-yl]-5-oxo-7-thioxo-6,8-diazaspiro[3.4]octan-6-yl]-3-(trifluoromethyl)pyridine-2-carbonitrile]
6 | 288 | 99.3 | > 15100 | 0.4 | 724 | 100 | > 15100 | 0.1 | N#Cc1ncc(N2C(=O)C3(CCC3)N(c3ccc4c(cnn4CCO)c3)C2=S)cc1Cl [Cpd 163, 3-chloro-5-[8-[1-(2-hydroxyethyl)indazol-5-yl]-5-oxo-7-thioxo-6,8-diazaspiro[3.4]octan-6-yl]pyridine-2-carbonitrile]
7 | 295 | 101 | > 15100 | 0.3 | 537 | 102 | > 15100 | 0 | COc1cc(N2C(=O)C3(CCC3)N(c3ccc4nn(CCO)cc4c3)C2=S)cnc1C#N [Cpd 164, 5-[8-[2-(2-hydroxyethyl)indazol-5-yl]-5-oxo-7-thioxo-6,8-diazaspiro[3.4]octan-6-yl]-3-methoxy-pyridine-2-carbonitrile]
8 | 316 | 100 | > 15100 | 0.2 | 324 | 101 | > 15100 | 0 | N#Cc1ncc(N2C(=O)C3(CCC3)N(c3ccc(OC4CC5CC4CN5)nc3)C2=S)cc1C(F)(F)F [Cpd 165, (R,S)-5-[8-[6-(2-azabicyclo[2.2.1]heptan-5-yloxy)-3-pyridyl]-5-oxo-7-thioxo-6,8-diazaspiro[3.4]octan-6-yl]-3-(trifluoromethyl)pyridine-2-carbonitrile]

From US10981926B2 (Janssen Pharmaceutica NV, priority 2016, dated 2021)
